Measurements: PubChem BioAssay AID2060599 (Molecular Pharmacology Branch, DTP, NCI, 2025)

System: 817829-284-R-J1-PDC complex spheroids, viability
Experiment: Anticancer human tumor 817829-284-R-J1-PDC patient-derived colon adenocarcinoma cell line growth inhibition [CLK]
Settings: for IC50: curve of first compound; for viability, T/C: stronger effect = lower value
Procedure, shortened: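 Patient-derived tumor cells grown as complex spheroids with HUVEC endothelial cells and mesenchymal stem cells, treated with drug combinations. Concentrations descend in half-log steps from near clinical Cmax, or from 10 microM if Cmax unknown.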

[1] = second compound 0.0316 µM, first compound 0.0316 µM
[2] = second compound 0.0316 µM, first compound 0.1 µM
[3] = second compound 0.0316 µM, first compound 0.316 µM
[4] = second compound 0.0316 µM, first compound 1 µM
[5] = second compound 0.0316 µM, first compound 3.16 µM
[6] = second compound 0.0316 µM, first compound 10 µM
[7] = second compound 0.1 µM, first compound 0.0316 µM
[8] = second compound 0.1 µM, first compound 0.1 µM
[9] = second compound 0.1 µM, first compound 0.316 µM
[10] = second compound 0.1 µM, first compound 1 µM
[11] = second compound 0.1 µM, first compound 3.16 µM
[12] = second compound 0.1 µM, first compound 10 µM
[13] = second compound 0.316 µM, first compound 0.0316 µM
[14] = second compound 0.316 µM, first compound 0.1 µM
[15] = second compound 0.316 µM, first compound 0.316 µM
[16] = second compound 0.316 µM, first compound 1 µM
[17] = second compound 0.316 µM, first compound 3.16 µM
[18] = second compound 0.316 µM, first compound 10 µM
[19] = second compound 1 µM, first compound 0.0316 µM
[20] = second compound 1 µM, first compound 0.1 µM
[21] = second compound 1 µM, first compound 0.316 µM
[22] = second compound 1 µM, first compound 1 µM
[23] = second compound 1 µM, first compound 3.16 µM
[24] = second compound 1 µM, first compound 10 µM
[25] = second compound 3.16 µM, first compound 0.0316 µM
[26] = second compound 3.16 µM, first compound 0.1 µM
[27] = second compound 3.16 µM, first compound 0.316 µM
[28] = second compound 3.16 µM, first compound 1 µM
[29] = second compound 3.16 µM, first compound 3.16 µM
[30] = second compound 3.16 µM, first compound 10 µM
[31] = second compound 10 µM, first compound 0.0316 µM
[32] = second compound 10 µM, first compound 0.1 µM
[33] = second compound 10 µM, first compound 0.316 µM
[34] = second compound 10 µM, first compound 1 µM
[35] = second compound 10 µM, first compound 3.16 µM
[36] = second compound 10 µM, first compound 10 µM
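Note: spheroids exposed to the agents for seven days before readout.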

With `Nc1ccn(C2OC(CO)C(O)C2(F)F)c(=O)n1` (stereo unspecified) + CNC(=O)c1ccc(Nc2nc(OC3CCCC3)c3c(-c4ccc5nc(C)oc5c4)c[nH]c3n2)c(OC)c1 the IC50 (second compound 0.0316 µM) was < 0.0316 µM, the IC50 (second compound 0.1 µM) was < 0.0316 µM and the IC50 (second compound 0.316 µM) was < 0.0316 µM. For the same molecule, the IC50 (second compound 1 µM) was < 0.0316 µM, the IC50 (second compound 3.16 µM) was < 0.0316 µM and the IC50 (second compound 10 µM) was < 0.0316 µM. It also gave a viability, T/C [1] of 7.4%, a viability, T/C [2] of 6.76% and a viability, T/C [3] of 7.11%. For the same molecule, the viability, T/C [4] was 7.29%, the viability, T/C [5] was 5.09% and the viability, T/C [6] was 3.92%. For the same molecule, the viability, T/C [7] was 8.05%, the viability, T/C [8] was 6.31% and the viability, T/C [9] was 5.97%. For the same molecule, the viability, T/C [10] was 5.9%, the viability, T/C [11] was 5.26% and the viability, T/C [12] was 3.21%. The viability, T/C [13] was 8.92%, the viability, T/C [14] was 6.1% and the viability, T/C [15] was 7.05%. For the same molecule, the viability, T/C [16] was 4.87%, the viability, T/C [17] was 4.82% and the viability, T/C [18] was 2.7%. For the same molecule, the viability, T/C [19] was 6.66%, the viability, T/C [20] was 4.92% and the viability, T/C [21] was 5.51%. For the same molecule, the viability, T/C [22] was 5.11%, the viability, T/C [23] was 3.64% and the viability, T/C [24] was 2.55%. It also gave a viability, T/C [25] of 6.07%, a viability, T/C [26] of 5.26% and a viability, T/C [27] of 4.97%. For the same molecule, the viability, T/C [28] was 4.56%, the viability, T/C [29] was 3.52% and the viability, T/C [30] was 3.21%. The viability, T/C [31] was 7.94%, the viability, T/C [32] was 5.03% and the viability, T/C [33] was 4.94%. The viability, T/C [34] was 4.81%, the viability, T/C [35] was 4.26% and the viability, T/C [36] was 2.75%.
In the case of `O=C(c1cc(Cc2n[nH]c(=O)c3ccccc23)ccc1F)N1CCN(C(=O)C2CC2)CC1` + CNC(=O)c1ccc(Nc2nc(OC3CCCC3)c3c(-c4ccc5nc(C)oc5c4)c[nH]c3n2)c(OC)c1, the IC50 (second compound 0.0316 µM) is reported as < 0.0316 µM, the IC50 (second compound 0.1 µM) is reported as < 0.0316 µM and the IC50 (second compound 0.316 µM) is reported as < 0.0316 µM. The IC50 (second compound 1 µM) was < 0.0316 µM, the IC50 (second compound 3.16 µM) was < 0.0316 µM and the IC50 (second compound 10 µM) was < 0.0316 µM. The viability, T/C [1] was 30.4%, the viability, T/C [2] was 42.9% and the viability, T/C [3] was 38%. The viability, T/C [4] was 26.7%, the viability, T/C [5] was 31.5% and the viability, T/C [6] was 22.4%. It also gave a viability, T/C [7] of 24.2%, a viability, T/C [8] of 19.2% and a viability, T/C [9] of 30.9%. For the same molecule, the viability, T/C [10] was 22.9%, the viability, T/C [11] was 24.2% and the viability, T/C [12] was 24.6%. It also gave a viability, T/C [13] of 26.9%, a viability, T/C [14] of 22% and a viability, T/C [15] of 27.7%. The viability, T/C [16] was 31.5%, the viability, T/C [17] was 25% and the viability, T/C [18] was 17.2%. For the same molecule, the viability, T/C [19] was 22.3%, the viability, T/C [20] was 20.1% and the viability, T/C [21] was 20%. For the same molecule, the viability, T/C [22] was 17.8%, the viability, T/C [23] was 16.9% and the viability, T/C [24] was 14.7%. It also gave a viability, T/C [25] of 21.9%, a viability, T/C [26] of 20.9% and a viability, T/C [27] of 19.4%. For the same molecule, the viability, T/C [28] was 25.5%, the viability, T/C [29] was 18.5% and the viability, T/C [30] was 22%. For the same molecule, the viability, T/C [31] was 21.9%, the viability, T/C [32] was 22.9% and the viability, T/C [33] was 30.8%. The viability, T/C [34] was 18.1%, the viability, T/C [35] was 15.8% and the viability, T/C [36] was 15.3%.
For `O=c1[nH]cc(F)c(=O)[nH]1` + CNC(=O)c1ccc(Nc2nc(OC3CCCC3)c3c(-c4ccc5nc(C)oc5c4)c[nH]c3n2)c(OC)c1, the IC50 (second compound 0.0316 µM) was < 0.0316 µM, the IC50 (second compound 0.1 µM) was < 0.0316 µM and the IC50 (second compound 0.316 µM) was < 0.0316 µM. The IC50 (second compound 1 µM) was < 0.0316 µM, the IC50 (second compound 3.16 µM) was < 0.0316 µM and the IC50 (second compound 10 µM) was < 0.0316 µM. For the same molecule, the viability, T/C [1] was 37.3%, the viability, T/C [2] was 39.1% and the viability, T/C [3] was 24.6%. The viability, T/C [4] was 38.4%, the viability, T/C [5] was 29.1% and the viability, T/C [6] was 22.6%. It also gave a viability, T/C [7] of 19.2%, a viability, T/C [8] of 24% and a viability, T/C [9] of 22.7%. For the same molecule, the viability, T/C [10] was 22.6%, the viability, T/C [11] was 18.5% and the viability, T/C [12] was 17.6%. For the same molecule, the viability, T/C [13] was 17.6%, the viability, T/C [14] was 26.6% and the viability, T/C [15] was 17.4%. It also gave a viability, T/C [16] of 23.1%, a viability, T/C [17] of 15% and a viability, T/C [18] of 12.6%. It also gave a viability, T/C [19] of 17.2%, a viability, T/C [20] of 16.8% and a viability, T/C [21] of 16.9%. It also gave a viability, T/C [22] of 11.3%, a viability, T/C [23] of 13.3% and a viability, T/C [24] of 7%. It also gave a viability, T/C [25] of 18.9%, a viability, T/C [26] of 20.1% and a viability, T/C [27] of 13.6%. For the same molecule, the viability, T/C [28] was 14.7%, the viability, T/C [29] was 10.8% and the viability, T/C [30] was 7.07%. The viability, T/C [31] was 20.7%, the viability, T/C [32] was 22.1% and the viability, T/C [33] was 17.8%. The viability, T/C [34] was 11.7%, the viability, T/C [35] was 7.79% and the viability, T/C [36] was 7.22%.
